Several values for one entry are separate records, joined by “and”; a condition that tells them apart may be missing. Identical values can stand only once. Like-named read-outs stand apart in the source and are kept apart here.
Columns and labels:
MDA-MB-231 cells = assay: Sulforhodamine B (SRB) cytotoxicity assay, MDA-MB-231; format: cell-based; settings: hormone-resistant breast cancer cells, 10–100 μM, 48 h
Description: (§1) Both cell lines were treated with 10–100 μM of compound 5a for 48 h. Cell survival at different concentrations was calculated compared to untreated controls. At the end of treatment, cell number was determined using the sulforhodamine B (SRB) colorimetric assay based on the measurement of cellular protein content.
(§2) MCF-7 and MDA-MB-231 cells were maintained in complete growth media (DMEM/Ham’s F12 supplemented with 10% fetal bovine serum, 2 mM L-glutamine, 100 units/mL penicillin, 100 units/mL of streptomycin, and 2.2 g/L of NaHCO3) at 37 °C in a humidified atmosphere of 5% CO2. For all procedures, cells were harvested using TrypLE Express (Life Technologies, Auckland, New Zealand).
(§3) Cells were seeded into 96-well plates and incubated for 24 h to test the cytotoxic effect of the HO inhibitor. After 24 h incubation, different concentrations of the HO inhibitor were administered for 48 h. Following the incubation, cells were fixed using 10% trichloro-acetic acid (TCA). The cytotoxicity was determined using the sulforhodamine B assay was used, as previously described, to determine the cytotoxicity of the HO-1 inhibitor. IC50 (the concentration required to decrease the cell number by 50%) was determined by non-linear regression using Graphpad prism 6 software. Treatments were performed in triplicate, and data represent the mean of three independent experiments.

HO-2 [1] = molecular target: T1, HO-2 (Rattus norvegicus, UniProt P23711); assay: HO-2 inhibition, bilirubin formation in rat brain microsomal fraction; format: biochemical; settings: mean ± SD of three determinations
T1 construct: selected in order to use the most native (i.e., closest to in vivo) forms of HO-1 and HO-2; from tissue; host or cells: brain microsomal fraction of male Sprague-Dawley rats
T1 sequence (P23711 1-315): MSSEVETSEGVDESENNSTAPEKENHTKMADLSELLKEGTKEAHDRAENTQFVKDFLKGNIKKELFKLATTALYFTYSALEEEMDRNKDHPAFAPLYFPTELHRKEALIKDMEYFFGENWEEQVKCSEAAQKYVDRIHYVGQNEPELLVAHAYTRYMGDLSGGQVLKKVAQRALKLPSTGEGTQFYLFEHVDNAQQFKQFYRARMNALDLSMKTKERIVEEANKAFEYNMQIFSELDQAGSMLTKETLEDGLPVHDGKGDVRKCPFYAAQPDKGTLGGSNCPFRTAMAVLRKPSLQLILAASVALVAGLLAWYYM
Description: (§4) HO-1 and HO-2 were obtained from the microsomal fractions of rat spleen and rat brain, respectively. Enzymatic activity of both isoforms was determined by measuring the bilirubin formation using the difference in absorbance at 464–530 nm, as described in the experimental section. Compounds A–C, and tin protoporphyrin (SnPP) were used as reference substances. Inhibition of enzymes activity is expressed as IC50 (μM), and results are resumed in Table 1.
The dominance of HO-1 protein in the rat spleen and of HO-2 in the rat brain has been well documented; thus, the microsomal fraction, prepared by differential centrifugation, from rat spleen and brain have been used to obtain HO-1 and HO-2. These particular microsomal preparations were selected in order to use the most native (i.e., closest to in vivo) forms of HO-1 and HO-2. Spleen and brain microsomal fractions, from Sprague–Dawley rats, were prepared following a published procedure. All experiments complied with current Italian law and met the guidelines of the Institutional Animal Care and Use Committee of MINISTRY OF HEALTH (Directorate General for Animal Health and Veterinary Medicines, Italy). Male Sprague–Dawley albino rats (150 g body weight and age 45 d) were used. Rats had free access to water, and they were maintained at room temperature with a natural photoperiod (12 h:12 h light–dark cycle). For measuring HO-1 and HO-2 activities, each rat was sacrificed and their spleen and brain were excised and weighed. […]
Liver cytosol has been used as a source of biliverdin reductase. […] The 100,000× g supernatant was saved and then stored in small amounts at −80 °C after its protein concentration was measured.
The measurement of bilirubin formation, using the difference in absorbance at 464–530 nm, was used to determine the HO-1 and HO-2 activities, as previously described by Ryter et al.. […] Then, the chloroform phase was recovered, and the amount of bilirubin, which was formed has been measured with a double-beam spectrophotometer as OD464–530 nm (extinction coefficient, 40 mM/cm^−1 for bilirubin). […]

MCF-7 cells = assay: Sulforhodamine B (SRB) cytotoxicity assay, MCF-7; format: cell-based; settings: Homo sapiens, MCF7, hormone-sensitive breast cancer cells, 10–100 μM, 48 h, mean ± SEM (n = 3), read-out: IC50 cytotoxicity against MCF-7
Description: as §1, §2, §3

HO-1 [2] = molecular target: T2, HO-1 (Rattus norvegicus, UniProt P06762); assay: HO-1 inhibition, bilirubin formation in rat spleen microsomal fraction; format: biochemical
T2 construct: selected in order to use the most native (i.e., closest to in vivo) forms of HO-1 and HO-2; from tissue; host or cells: spleen microsomal fraction of male Sprague-Dawley rats
T2 sequence (P06762 1-289): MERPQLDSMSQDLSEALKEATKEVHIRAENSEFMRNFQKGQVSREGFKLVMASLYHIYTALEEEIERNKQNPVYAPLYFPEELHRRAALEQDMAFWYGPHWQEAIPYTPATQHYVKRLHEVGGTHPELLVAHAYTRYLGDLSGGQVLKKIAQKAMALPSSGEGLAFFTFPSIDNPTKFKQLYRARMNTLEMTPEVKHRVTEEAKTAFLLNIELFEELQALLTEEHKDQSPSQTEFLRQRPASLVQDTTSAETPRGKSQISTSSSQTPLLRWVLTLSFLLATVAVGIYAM
Description: as §4
The dominance of HO-1 protein in the rat spleen and of HO-2 in the rat brain has been well documented; thus, the microsomal fraction, prepared by differential centrifugation, from rat spleen and brain have been used to obtain HO-1 and HO-2. These particular microsomal preparations were selected in order to use the most native (i.e., closest to in vivo) forms of HO-1 and HO-2. Spleen and brain microsomal fractions, from Sprague–Dawley rats, were prepared following a published procedure. All experiments complied with current Italian law and met the guidelines of the Institutional Animal Care and Use Committee of MINISTRY OF HEALTH (Directorate General for Animal Health and Veterinary Medicines, Italy). Male Sprague–Dawley albino rats (150 g body weight and age 45 d) were used. Rats had free access to water, and they were maintained at room temperature with a natural photoperiod (12 h:12 h light–dark cycle). For measuring HO-1 and HO-2 activities, each rat was sacrificed and their spleen and brain were excised and weighed. A homogenate (15%, w/v) of spleens and brains pooled from four rats was prepared in ice-cold HO-homogenizing buffer (50 mM Tris buffer, pH 7.4, containing 0.25 M sucrose) using a Potter–Elvehjem homogenizing system with a Teflon pestle. The microsomal fraction of rat spleen and brain homogenate was obtained by centrifugation at 10,000× g for 20 min at 4 °C, followed by centrifugation of the supernatant at 100,000× g for 60 min at 4 °C. The 100,000× g pellet (microsomes) was resuspended in 100 mM potassium phosphate buffer, pH 7.8, containing 2 mM MgCl2 with a Potter–Elvehjem homogenizing system. Equal aliquots of the rat spleen and brain microsomal fractions were prepared, placed into microcentrifuge tubes, and stored at −80 °C for up to 2 months. Finally, the Lowry method was used to determine the protein concentration of the microsomal fraction.
Liver cytosol has been used as a source of biliverdin reductase. Rat liver was perfused through the hepatic portal vein with cold 0.9% NaCl, then it was cut and flushed with 2 × 20 mL of ice-cold PBS to remove all of the blood. Liver tissue was homogenized in three volumes of a solution containing 1.15% KCl w/v and Tris buffer 20 mM, pH 7.8 on ice. Homogenates were centrifuged at 10,000× g for 20 min at 4 °C. The supernatant was decanted and centrifuged at 100,000× g for 1 h at 4 °C to sediment the microsomes. The 100,000× g supernatant was saved and then stored in small amounts at −80 °C after its protein concentration was measured.
The measurement of bilirubin formation, using the difference in absorbance at 464–530 nm, was used to determine the HO-1 and HO-2 activities, as previously described by Ryter et al.. Reaction mixtures (500 μL) consisted of 20 mM Tris–HCl, pH 7.4, (1 mg/mL) microsomal extract, 0.5–2 mg/mL biliverdin reductase, 1 mM NADPH, 2 mM glucose 6-phosphate (G6P), 1 U G6P dehydrogenase, 25 μM hemin, and 10 μL of DMSO (or the same volume of DMSO solution of test or reference compounds to a final concentration of 100, 10, and 1 μM). Incubations were carried out for 60 min at 37 °C in a circulating water bath in the dark. One volume of chloroform was added to stop the reactions. Then, the chloroform phase was recovered, and the amount of bilirubin, which was formed has been measured with a double-beam spectrophotometer as OD464–530 nm (extinction coefficient, 40 mM/cm^−1 for bilirubin). […]

HO-2 [3] = molecular target: T1, HO-2; settings: reference compounds; data taken from ref 32; read-out: IC50 (μM) ± SD HO-2; cited from earlier work
HO-1 [4] = molecular target: T2, HO-1; settings: reference compounds; data taken from ref 32; read-out: IC50 (μM) ± SD HO-1; cited from earlier work
[5] = experimental values repeated in the docking table, read-out: IC50 exp. (μM) HO-1
[6] = rat spleen microsomal fraction, mean ± SD of three determinations, read-out: IC50 (μM) ± SD HO-1

SMILES | melting point | IC50 (HO-1 [2]; [5]) | IC50 (HO-1 [2]; [6]) | other results
OC(Cn1ccnc1)c1cccc(OCc2ccc(Br)cc2)c1 (centres unmarked) [Compound 5a, 1-[3-[(4-bromobenzyl)oxy]phenyl]-2-(1H-imidazol-1-yl)ethanol] | 123 to 126 °C | 0.9 ± 0.02 µM | 0.9 ± 0.02 µM | cytotoxicity against MDA-MB-231 (MDA-MB-231 cells): no cytotoxicity; IC50 (HO-2 [1]): 54 µM and 53.6 µM; IC50 (MCF-7 cells): 47.4 ± 6.8 µM
OC(Cn1ccnc1)c1cccc(-c2ccccc2)c1 (centres unmarked) [B] | – | – | – | IC50 (HO-2 [3]): > 100 µM; IC50 (HO-1 [4]): 0.95 µM
O=C(Cn1ccnc1)c1cccc(Br)c1 [Compound 4g] | – | – | 38.2 ± 1.8 µM | –
O=C(Cn1ccnc1)c1ccc(OCc2ccc(Br)cc2)cc1 [Compound 4i] | – | – | 55.46 ± 0.05 µM | –
OC(Cn1ccnc1)c1ccc(OCc2ccc(Br)cc2)cc1 (centres unmarked) [C] | – | – | – | IC50 (HO-2 [3]): > 100 µM
OC(Cn1ccnc1)c1ccccc1OCc1ccc(Br)cc1 (centres unmarked) [Compound 5b, 1-[2-[(4-bromobenzyl)oxy]phenyl]-2-(1H-imidazol-1-yl)ethanol] | 121.5 to 130 °C | > 100 µM | ≥ 100 µM | –
Clc1ccc(COC(Cn2ccnc2)c2cccc(Br)c2)cc1 (centres unmarked) [Compound 6a, 1-(2-(3-bromophenyl)-2-((4-chlorobenzyl)oxy)ethyl)-1H-imidazole] | – | > 100 µM | > 100 µM | –
OC(Cn1ccnc1)c1ccc(OCc2cccc(Br)c2)cc1 (centres unmarked) [Compound 5c, 1-[4-[(3-bromobenzyl)oxy]phenyl]-2-(1H-imidazol-1-yl)ethanol] | 120.1 to 123 °C | 41 ± 1.5 µM | 41 ± 1.5 µM | –
OC(Cn1ccnc1)c1ccc(OCc2ccccc2Br)cc1 (centres unmarked) [Compound 5d, 1-[4-[(2-bromobenzyl)oxy]phenyl]-2-(1H-imidazol-1-yl)ethanol] | 120 to 126 °C | 9 ± 2.2 µM | 9 ± 2.2 µM | IC50 (HO-2 [1]): 15.8 ± 1.6 µM
Brc1ccc(COc2ccc(CCn3ccnc3)cc2)cc1 [Compound 2b, 1-(4-((4-bromobenzyl)oxy)phenethyl)-1H-imidazole] | 147.5 to 149.7 °C | 62.9 ± 3.2 µM | 62.9 ± 3.2 µM | –
Brc1cccc(CCn2ccnc2)c1 [Compound 2a, 1-(3-bromophenethyl)-1H-imidazole] | – | 100 µM | 100 ± 5.6 µM | –
Clc1ccc(Cl)c(COC(Cn2ccnc2)c2cccc(Br)c2)c1 (centres unmarked) [Compound 6b, 1-(2-(3-bromophenyl)-2-((2,5-dichlorobenzyl)oxy)ethyl)-1H-imidazole] | – | 66 ± 3.2 µM | 66 ± 3.2 µM | –
OC(Cn1ccnc1)c1cccc(OCc2ccccc2Br)c1 (centres unmarked) [Compound 5f, 1-[3-[(2-bromobenzyl)oxy]phenyl]-2-(1H-imidazol-1-yl)ethanol] | 132 to 140 °C | 44 ± 1.8 µM | 44 ± 1.8 µM | –
c1ccc(-c2cccc(CCn3ccnc3)c2)cc1 [Compound 2c, 1-(2-((1,1’-biphenyl)-3-yl)ethyl)-1H-imidazole] | – | 46.8 ± 1.8 µM | 46.8 ± 1.8 µM | –
OC(Cn1ccnc1)c1cccc(OCc2cccc(Br)c2)c1 (centres unmarked) [Compound 5e, 1-[3-[(3-bromobenzyl)oxy]phenyl]-2-(1H-imidazol-1-yl)ethanol] | 93.5 to 99.4 °C | 46 ± 1.9 µM | 46 ± 1.9 µM | –
C=Cc1c2[n-]c(c1C)/C=c1\[n-]/c(c(C)c1C=C)=C\c1[n-]c(c(CCC(=O)O)c1C)/C=c1\[n-]c(c(C)c1CCC(=O)O)=C2.[Sn+4] [SnPP, tin protoporphyrin, reference compound] | – | – | 0.58 ± 0.03 µM | IC50 (HO-2 [1]): 0.36 ± 0.01 µM
O=C(Cn1ccnc1)c1cccc(-c2ccccc2)c1 [Compound 4h] | – | – | 19.9 ± 2.5 µM | –

Reference: paper PMC7139504, “New Arylethanolimidazole Derivatives as HO-1 Inhibitors with Cytotoxicity against MCF-7 Breast Cancer Cells” (International Journal of Molecular Sciences, 2020)
